{"source": "PubChem BioAssay AID2060612", "about": "(Molecular Pharmacology Branch, DTP, NCI, 2025)", "system": "565232-114-T-J1-PDC complex spheroid viability", "assay": "Anticancer human tumor 565232-114-T-J1-PDC patient-derived bladder carcinoma cell line growth inhibition [CLK]", "conditions": "for viability, T/C: stronger effect = lower value", "in_short": "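Multi-cell-type spheroids combined patient-derived tumor cells with HUVEC endothelial cells and human mesenchymal stem cells. Paired agents were dosed in half-log steps down from about clinical Cmax, or from 10 microM where Cmax was unknown.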", "key": {"[1]": {"conditions": "curve of first compound, second compound 0.0316 µM"}, "[2]": {"conditions": "curve of first compound, second compound 0.1 µM"}, "[3]": {"conditions": "curve of first compound, second compound 0.316 µM"}, "[4]": {"conditions": "curve of first compound, second compound 1 µM"}, "[5]": {"conditions": "curve of first compound, second compound 3.16 µM"}, "[6]": {"conditions": "curve of first compound, second compound 10 µM"}, "[7]": {"conditions": "second compound 0.0316 µM, first compound 0.0316 µM"}, "[8]": {"conditions": "second compound 0.0316 µM, first compound 0.1 µM"}, "[9]": {"conditions": "second compound 0.0316 µM, first compound 0.316 µM"}, "[10]": {"conditions": "second compound 0.0316 µM, first compound 1 µM"}, "[11]": {"conditions": "second compound 0.1 µM, first compound 0.0316 µM"}, "[12]": {"conditions": "second compound 0.1 µM, first compound 0.1 µM"}, "[13]": {"conditions": "second compound 0.1 µM, first compound 0.316 µM"}, "[14]": {"conditions": "second compound 0.1 µM, first compound 1 µM"}, "[15]": {"conditions": "second compound 0.316 µM, first compound 0.0316 µM"}, "[16]": {"conditions": "second compound 0.316 µM, first compound 0.1 µM"}, "[17]": {"conditions": "second compound 0.316 µM, first compound 0.316 µM"}, "[18]": {"conditions": "second compound 0.316 µM, first compound 1 µM"}, "[19]": {"conditions": "second compound 1 µM, first compound 0.0316 µM"}, "[20]": {"conditions": "second compound 1 µM, first compound 0.1 µM"}, "[21]": {"conditions": "second compound 1 µM, first compound 0.316 µM"}, "[22]": {"conditions": "second compound 1 µM, first compound 1 µM"}, "[23]": {"conditions": "second compound 3.16 µM, first compound 0.0316 µM"}, "[24]": {"conditions": "second compound 3.16 µM, first compound 0.1 µM"}, "[25]": {"conditions": "second compound 3.16 µM, first compound 0.316 µM"}, "[26]": {"conditions": "second compound 3.16 µM, first compound 1 µM"}, "[27]": {"conditions": "second compound 10 µM, first compound 0.0316 µM"}, "[28]": {"conditions": "second compound 10 µM, first compound 0.1 µM"}, "[29]": {"conditions": "second compound 10 µM, first compound 0.316 µM"}, "[30]": {"conditions": "second compound 10 µM, first compound 1 µM"}}, "note": "Several values for one entry are separate records, joined by “and”; a condition that tells them apart may be missing. Identical values can stand only once.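 Also: spheroids exposed to compounds for 7 days before readout.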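 For viability, T/C in this document: 100% = DMSO vehicle wells with luminescence normalized to vehicle control.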"}
{"smiles": "O=c1[nH]cc(F)c(=O)[nH]1", "note": "+ CNC(=O)c1ccc(Nc2nc(OC3CCCC3)c3c(-c4ccc5nc(C)oc5c4)c[nH]c3n2)c(OC)c1", "values": [{"measurement": "IC50", "setting": "[1]", "value": "> 10000", "unit": "nM"}, {"measurement": "IC50", "setting": "[2]", "value": "< 31.6", "unit": "nM"}, {"measurement": "IC50", "setting": "[3]", "value": "< 31.6", "unit": "nM"}, {"measurement": "IC50", "setting": "[4]", "value": "< 31.6", "unit": "nM"}, {"measurement": "IC50", "setting": "[5]", "value": "< 31.6", "unit": "nM"}, {"measurement": "IC50", "setting": "[6]", "value": "< 31.6", "unit": "nM"}, {"measurement": "viability, T/C", "setting": "[7]", "value": 84.3, "unit": "%"}, {"measurement": "viability, T/C", "setting": "[8]", "value": 96.8, "unit": "%"}, {"measurement": "viability, T/C", "setting": "[9]", "value": 97.1, "unit": "%"}, {"measurement": "viability, T/C", "setting": "[10]", "value": 108, "unit": "%"}, {"measurement": "viability, T/C", "setting": "second compound 0.0316 µM, first compound 3.16 µM", "value": 87.3, "unit": "%"}, {"measurement": "viability, T/C", "setting": "second compound 0.0316 µM, first compound 10 µM", "value": 72.4, "unit": "%"}, {"measurement": "viability, T/C", "setting": "[11]", "value": 44, "unit": "%"}, {"measurement": "viability, T/C", "setting": "[12]", "value": 50, "unit": "%"}, {"measurement": "viability, T/C", "setting": "[13]", "value": 44, "unit": "%"}, {"measurement": "viability, T/C", "setting": "[14]", "value": 48, "unit": "%"}, {"measurement": "viability, T/C", "setting": "second compound 0.1 µM, first compound 3.16 µM", "value": 41, "unit": "%"}, {"measurement": "viability, T/C", "setting": "second compound 0.1 µM, first compound 10 µM", "value": 46.1, "unit": "%"}, {"measurement": "viability, T/C", "setting": "[15]", "value": 29.7, "unit": "%"}, {"measurement": "viability, T/C", "setting": "[16]", "value": 31.4, "unit": "%"}, {"measurement": "viability, T/C", "setting": "[17]", "value": 31.2, "unit": "%"}, {"measurement": "viability, T/C", "setting": "[18]", "value": 36, "unit": "%"}, {"measurement": "viability, T/C", "setting": "second compound 0.316 µM, first compound 3.16 µM", "value": 35.3, "unit": "%"}, {"measurement": "viability, T/C", "setting": "second compound 0.316 µM, first compound 10 µM", "value": 40.1, "unit": "%"}, {"measurement": "viability, T/C", "setting": "[19]", "value": 20.1, "unit": "%"}, {"measurement": "viability, T/C", "setting": "[20]", "value": 21, "unit": "%"}, {"measurement": "viability, T/C", "setting": "[21]", "value": 19.4, "unit": "%"}, {"measurement": "viability, T/C", "setting": "[22]", "value": 23.1, "unit": "%"}, {"measurement": "viability, T/C", "setting": "second compound 1 µM, first compound 3.16 µM", "value": 23.8, "unit": "%"}, {"measurement": "viability, T/C", "setting": "second compound 1 µM, first compound 10 µM", "value": 28.5, "unit": "%"}, {"measurement": "viability, T/C", "setting": "[23]", "value": 16.9, "unit": "%"}, {"measurement": "viability, T/C", "setting": "[24]", "value": 16.4, "unit": "%"}, {"measurement": "viability, T/C", "setting": "[25]", "value": 17.8, "unit": "%"}, {"measurement": "viability, T/C", "setting": "[26]", "value": 19.6, "unit": "%"}, {"measurement": "viability, T/C", "setting": "second compound 3.16 µM, first compound 3.16 µM", "value": 18.6, "unit": "%"}, {"measurement": "viability, T/C", "setting": "second compound 3.16 µM, first compound 10 µM", "value": 21.3, "unit": "%"}, {"measurement": "viability, T/C", "setting": "[27]", "value": 21.3, "unit": "%"}, {"measurement": "viability, T/C", "setting": "[28]", "value": 16.1, "unit": "%"}, {"measurement": "viability, T/C", "setting": "[29]", "value": 18.2, "unit": "%"}, {"measurement": "viability, T/C", "setting": "[30]", "value": 19.9, "unit": "%"}, {"measurement": "viability, T/C", "setting": "second compound 10 µM, first compound 3.16 µM", "value": 18.1, "unit": "%"}, {"measurement": "viability, T/C", "setting": "second compound 10 µM, first compound 10 µM", "value": 18.9, "unit": "%"}]}
{"smiles": "CCc1c2c(nc3ccc(O)cc13)-c1cc3c(c(=O)n1C2)COC(=O)[C@]3(O)CC", "note": "+ CNC(=O)c1ccc(Nc2nc(OC3CCCC3)c3c(-c4ccc5nc(C)oc5c4)c[nH]c3n2)c(OC)c1", "values": [{"measurement": "IC50", "setting": "[1]", "value": 8.14, "unit": "nM"}, {"measurement": "IC50", "setting": "[2]", "value": "< 3.16", "unit": "nM"}, {"measurement": "IC50", "setting": "[3]", "value": "< 3.16", "unit": "nM"}, {"measurement": "IC50", "setting": "[4]", "value": "< 3.16", "unit": "nM"}, {"measurement": "IC50", "setting": "[5]", "value": "< 3.16", "unit": "nM"}, {"measurement": "IC50", "setting": "[6]", "value": "< 3.16", "unit": "nM"}, {"measurement": "viability, T/C", "setting": "second compound 0.0316 µM, first compound 0.00316 µM", "value": 103, "unit": "%"}, {"measurement": "viability, T/C", "setting": "second compound 0.0316 µM, first compound 0.01 µM", "value": 37.1, "unit": "%"}, {"measurement": "viability, T/C", "setting": "[7]", "value": 16.6, "unit": "%"}, {"measurement": "viability, T/C", "setting": "[8]", "value": 5.26, "unit": "%"}, {"measurement": "viability, T/C", "setting": "[9]", "value": 3.13, "unit": "%"}, {"measurement": "viability, T/C", "setting": "[10]", "value": 1.53, "unit": "%"}, {"measurement": "viability, T/C", "setting": "second compound 0.1 µM, first compound 0.00316 µM", "value": 33.4, "unit": "%"}, {"measurement": "viability, T/C", "setting": "second compound 0.1 µM, first compound 0.01 µM", "value": 17.9, "unit": "%"}, {"measurement": "viability, T/C", "setting": "[11]", "value": 12.2, "unit": "%"}, {"measurement": "viability, T/C", "setting": "[12]", "value": 3.99, "unit": "%"}, {"measurement": "viability, T/C", "setting": "[13]", "value": 2.1, "unit": "%"}, {"measurement": "viability, T/C", "setting": "[14]", "value": 1.61, "unit": "%"}, {"measurement": "viability, T/C", "setting": "second compound 0.316 µM, first compound 0.00316 µM", "value": 18.9, "unit": "%"}, {"measurement": "viability, T/C", "setting": "second compound 0.316 µM, first compound 0.01 µM", "value": 15.3, "unit": "%"}, {"measurement": "viability, T/C", "setting": "[15]", "value": 8.99, "unit": "%"}, {"measurement": "viability, T/C", "setting": "[16]", "value": 3.91, "unit": "%"}, {"measurement": "viability, T/C", "setting": "[17]", "value": 1.28, "unit": "%"}, {"measurement": "viability, T/C", "setting": "[18]", "value": 0.35, "unit": "%"}, {"measurement": "viability, T/C", "setting": "second compound 1 µM, first compound 0.00316 µM", "value": 14.7, "unit": "%"}, {"measurement": "viability, T/C", "setting": "second compound 1 µM, first compound 0.01 µM", "value": 13.8, "unit": "%"}, {"measurement": "viability, T/C", "setting": "[19]", "value": 4.81, "unit": "%"}, {"measurement": "viability, T/C", "setting": "[20]", "value": 4.56, "unit": "%"}, {"measurement": "viability, T/C", "setting": "[21]", "value": 1.55, "unit": "%"}, {"measurement": "viability, T/C", "setting": "[22]", "value": 0.71, "unit": "%"}, {"measurement": "viability, T/C", "setting": "second compound 3.16 µM, first compound 0.00316 µM", "value": 15.7, "unit": "%"}, {"measurement": "viability, T/C", "setting": "second compound 3.16 µM, first compound 0.01 µM", "value": 9.15, "unit": "%"}, {"measurement": "viability, T/C", "setting": "[23]", "value": 5.68, "unit": "%"}, {"measurement": "viability, T/C", "setting": "[24]", "value": 2.4, "unit": "%"}, {"measurement": "viability, T/C", "setting": "[25]", "value": 1, "unit": "%"}, {"measurement": "viability, T/C", "setting": "[26]", "value": 0.27, "unit": "%"}, {"measurement": "viability, T/C", "setting": "second compound 10 µM, first compound 0.00316 µM", "value": 17.3, "unit": "%"}, {"measurement": "viability, T/C", "setting": "second compound 10 µM, first compound 0.01 µM", "value": 12.9, "unit": "%"}, {"measurement": "viability, T/C", "setting": "[27]", "value": 6.78, "unit": "%"}, {"measurement": "viability, T/C", "setting": "[28]", "value": 3.12, "unit": "%"}, {"measurement": "viability, T/C", "setting": "[29]", "value": 1.32, "unit": "%"}, {"measurement": "viability, T/C", "setting": "[30]", "value": 2.51, "unit": "%"}]}
{"smiles": "Nc1ccn(C2OC(CO)C(O)C2(F)F)c(=O)n1", "note": "(stereo unspecified)", "values": [{"measurement": "viability, T/C", "setting": "compound 0.0316 µM", "value": "95.5% and 50.3%"}, {"measurement": "viability, T/C", "setting": "compound 0.1 µM", "value": "57% and 17.7%"}, {"measurement": "viability, T/C", "setting": "compound 0.316 µM", "value": "36.3% and 10.3%"}, {"measurement": "viability, T/C", "setting": "compound 1 µM", "value": "35.6% and 9.39%"}, {"measurement": "viability, T/C", "setting": "compound 3.16 µM", "value": "37.5% and 13%"}, {"measurement": "viability, T/C", "setting": "compound 10 µM", "value": "39.9% and 13.2%"}, {"measurement": "IC50", "setting": "curve of compound", "value": "151 nM and 31.8 nM"}]}
